Here are results for one molecule from US11992471B2, “Reelin/VEGF-C production/activation promoter and skin external composition using the same” (AMOREPACIFIC CORPORATION, priority 2021, dated 2024).

Molecules are shown by their SMILES.

Holding throughout (format): cell-based
For data set [1], the system named is Human dermal lymphatic endothelial cells (HDLEC). As to the kind of experiment: Cytotoxicity analysis (WST-8 cell viability). The settings on record: within a concentration range of 200 ppm, cultured 24 hours and 72 hours, FIG. 1. The method, then:
Human dermal lymphatic endothelial cells (HDLEC, PromoCell, Germany) were newly cultured in 96 well dishes for one day and then treated with a compound represented by Chemical Formula E-1 (Biogenics Company) at each concentration of 0 ppm ( ? ) to 200 ppm ( ? ). The cells were cultured for 24 hours and 72 hours, and then measured with respect to absorbance at 450 nm by using a QuantiMax WST-8 Cell viability assay kit to check cell viability, and the results are shown in FIG. 1.
(In general: Tetrazolium assays rely on reduction of a dye to a coloured formazan, in cell work by metabolically active cells.)

The next data set relates to reelin. As to the kind of experiment: Reelin cytokine analysis (human reelin ELISA). The settings on record: HDLEC, 1 ppm and 10 ppm, 48 hours, compared with cells with no treatment (100%), FIG. 2. The method, then:
After culturing human dermal lymphatic endothelial cells in 6 well plates for 24 hours, while the cells with no treatment (N.T) were used as a reference (100%), the cells were treated with the compound represented by Chemical Formula E-1 at each concentration of 1 ppm and 10 ppm and cultured for 48 hours and then measured with respect to production and activity of reelin through a reelin cytokine analysis by using human reelin ELISA Kit (Mybiosource, U.S.A.) according to a manual, and the results are shown in FIG. 2.
For orientation: ELISA stands for enzyme-linked immunosorbent assay.

The test system of another data set is VEGF-C. As to the kind of experiment: VEGF-C cytokine analysis (VEGFC human ELISA). As to conditions: HDLEC, 1 ppm and 10 ppm, 48 hours, compared with cells with no treatment (100%), FIG. 3. The method, then:
After culturing human dermal lymphatic endothelial cells in 6 well plates for 24 hours, while the cells with no treatment (N.T) were used as a reference (100%), the cells were treated with the compound represented by Chemical Formula E-1 at each concentration of 1 ppm and 10 ppm and cultured for 48 hours and then measured with respect to production and activity of VEGF-C through a VEGF-C cytokine analysis by using a VEGFC human ELISA Kit (ThermoFisher, U.S.A.) according to a manual, and the results are shown in FIG. 3.

On to `NCCS(=O)(=O)O` [Chemical Formula E-1], for which the “cytotoxicity (cell viability)” value in data set [1] was “no cytotoxicity”. Further, the “production and activity of reelin” value in the data set with reelin was “further improve production and activity of reelin”. Besides, the “production and activity of VEGF-C” value in the data set on VEGF-C was “further improve production and activity of VEGF-C”.
